Test results from BindingDB's records for PubMed 38373290 (University of the Republic (UdelaR)).

Target: Metallo-beta-lactamase type 2 (Klebsiella pneumoniae, UniProt C7C422)
Assay: Inhibition of his6-tagged NDM-1 (unknown origin) expressed in Escherichia coli BL21-DE3 incubated for 16 hrs

Metallo-beta-lactamase type 2, sequence (C7C422 whole entry): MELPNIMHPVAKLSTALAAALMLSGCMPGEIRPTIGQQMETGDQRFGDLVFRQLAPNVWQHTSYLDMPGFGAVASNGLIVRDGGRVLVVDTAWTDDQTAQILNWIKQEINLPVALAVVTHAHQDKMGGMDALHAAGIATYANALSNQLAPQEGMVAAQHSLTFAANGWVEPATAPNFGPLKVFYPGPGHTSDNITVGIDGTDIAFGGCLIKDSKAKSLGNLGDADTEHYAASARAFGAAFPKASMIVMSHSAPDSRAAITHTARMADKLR

Compound: SC[C@H]1SC[C@@H]2Nc3ccccc3N21
- IC50: 770 nM
